Results published in PubChem BioAssay AID602128 (The Scripps Research Institute Molecular Screening Center, 2011).
The source made the active and inactive calls. How the calls were made is not given here.

Biological target: Mucolipin-3 (Homo sapiens) (UniProt Q8TDD5)
Assay: TRPML3 agonist potency, SAR follow-up, cell-based, HEK293, calcium fluorescence, analogs, round 2 (AID 602128)
Conditions: HEK293 TRPML3 cells

Chain of Mucolipin-3 (Homo sapiens) (Q8TDD5 whole entry, looked up): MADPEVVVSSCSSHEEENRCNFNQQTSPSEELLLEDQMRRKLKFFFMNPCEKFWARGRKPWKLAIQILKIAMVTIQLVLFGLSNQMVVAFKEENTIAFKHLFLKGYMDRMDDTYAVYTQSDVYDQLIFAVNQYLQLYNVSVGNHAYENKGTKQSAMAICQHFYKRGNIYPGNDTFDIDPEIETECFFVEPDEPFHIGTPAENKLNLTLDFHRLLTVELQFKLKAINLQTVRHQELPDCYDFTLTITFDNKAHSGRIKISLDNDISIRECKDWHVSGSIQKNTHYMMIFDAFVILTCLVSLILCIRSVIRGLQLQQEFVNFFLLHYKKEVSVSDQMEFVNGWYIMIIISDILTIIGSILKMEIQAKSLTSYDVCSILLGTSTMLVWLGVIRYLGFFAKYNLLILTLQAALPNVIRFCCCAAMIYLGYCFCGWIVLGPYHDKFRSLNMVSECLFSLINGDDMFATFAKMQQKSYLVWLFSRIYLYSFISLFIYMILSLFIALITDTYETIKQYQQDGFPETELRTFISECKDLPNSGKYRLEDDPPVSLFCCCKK

EC50	Structure (SMILES)
291 nM	Cc1ccc(S(=O)(=O)n2ccc(-c3c(-c4ccc(Cl)cc4)noc3C)n2)cc1
> 29900 nM (inactive)	Cc1ccc(S(=O)(=O)n2nccc2-c2c(-c3ccc(Cl)cc3)noc2C)cc1
